Consider 25 compounds from patent publication US20100048660A1, “TREATMENT OF DUCHENNE MUSCULAR DYSTROPHY” (priority 2006, published 2010).

One experiment has as its system Utrophin A promoter linked to a luciferase reporter gene (H2K/mdx/Utro A reporter cell line). The experiment in a line: Luciferase reporter assay (murine H2K cells). The experiment is classed as cell-based. The conditions noted are these: Mus musculus; Table 1; murine H2K mdx myoblasts, compound final concentration 10 μM, 48 hrs; read-out: Activity (luciferase reporter assay, relative to control). The method, then: 1. Luciferase Reporter Assay (Murine H2K Cells)
The cell line used for the screen is an immortalized mdx mouse H2K cell line that has been stably transfected with a plasmid containing ≈5 kb fragment of the Utrophin A promoter including the first untranslated exon linked to a luciferase reporter gene (see FIG. 1).
Under conditions of low temperature and interferon containing media, the cells remain as myoblasts. These are plated into 96 well plates and cultured in the presence of compound for three days. The level of luciferase is then determined by cell lysis and reading of the light output from the expressed luciferase gene utilising a plate luminometer.
The H2K/mdx/Utro A reporter cell line was passaged twice a week until ≦30% confluent. The cells were grown at 33° C. in the presence of 10% CO2
The H2K/mdx/Utro A reporter cell line cells were plated out into 96 well plates (Falcon 353296, white opaque) at a density of approximately 5000 cells/well in 190 μl normal growth medium. The plates were then incubated at 33° C. in the presence of 10% CO2 for 24 hrs.
Compounds were dosed by adding 10 μl of diluted compound to each well giving a final concentration of 10 μM. The plates were then incubated for a further 48 hrs
Cells were then lysed in situ following the manufacture's protocols (Promega Steady-Glo Luciferase Assay System (E2520). Then counted for 10 seconds using a plate luminometer (Victorl420).
Turning to `CC(=O)Nc1ccc2nn(-c3ccc(Cl)cc3)nc2c1` [Example 39, N-(2-(4-chlorophenyl)-2H-benzo[d][1,2,3]triazol-5-yl)acetamide], the activity at 10 µM was greater than 401%.
The same measure, in the same setting: the value for `Nc1ccc2nn(-c3ccc(N4CCCCC4)cc3)nc2c1` [Example 40, 2-(4-(piperidin-1-yl)phenyl)-2H-benzo[d][1,2,3]triazol-5-amine] was 201 to 300%; that for `CN(C)c1ccc(-n2nc3ccc(N)cc3n2)cc1` [Example 41, 2-(4-(dimethylamino)phenyl)-2H-benzo[d][1,2,3]triazol-5-amine] was 301 to 400%; that for `CN1CCN(c2ccc(-n3nc4ccc(N)cc4n3)cc2)CC1` [Example 42, 2-(4-(4-methylpiperazin-1-yl)phenyl)-2H-benzo[d][1,2,3]triazol-5-amine] was less than 200%.
Same read-out and setting: next, `Cc1cc2nn(-c3ccc(Cl)cc3)nc2cc1N` [Example 43, 2-(4-chlorophenyl)-6-methyl-2H-benzo[d][1,2,3]triazol-5-amine]: greater than 401%; `CS(=O)(=O)c1ccc2cn(-c3ccc(Cl)cc3)nc2c1` [Example 44, 2-(4-chlorophenyl)-6-(methylsulfonyl)-2H-indazole]: 201 to 300%; `O=[N+]([O-])c1ccc2cn(-c3ccc(Cl)cc3)nc2c1` [Example 45, 2-(4-chlorophenyl)-6-nitro-2H-indazole]: less than 200%.
Same read-out and setting: next, `CC(C)C(=O)Nc1ccc2cn(-c3ccc(Cl)cc3)nc2c1` [Example 46, N-(2-(4-chlorophenyl)-2H-indazol-6-yl)isobutyramide]: greater than 401%; `CS(=O)(=O)c1ccc2nn(-c3ccc(Cl)cc3)[n+]([O-])c2c1` [Example 47, 2-(4-chlorophenyl)-6-(methylsulfonyl)-2H-benzo[d][1,2,3]triazole 1-oxide]: less than 200%; `Clc1ccc(-n2cc3ccccc3n2)cc1` [Example 48, 2-(4-chlorophenyl)-2H-indazole]: greater than 401%.
For the compound `CS(=O)(=O)c1ccc2nn(-c3ccc(Cl)cc3)nc2c1` [Example 49, 2-(4-chlorophenyl)-5-(methylsulfonyl)-2H-benzo[d][1,2,3]triazole], the activity at 10 µM is less than 200%.
Same read-out and setting: the value for `CS(=O)(=O)c1ccc2nn(-c3ccc(Cl)c(Cl)c3)nc2c1` [Example 50, 2-(3,4-dichlorophenyl)-5-(methylsulfonyl)-2H-benzo[d][1,2,3]triazole] was 201 to 300%.
The same measure, in the same setting: the value for `CCS(=O)(=O)c1ccc2nn(-c3ccc(Cl)c(Cl)c3)nc2c1` [Example 51, 2-(3′,4′-dichlorophenyl)-5-(ethylsulfonyl)-benzotriazole] was 301 to 400%; that for `CCS(=O)(=O)c1ccc2nn(-c3ccc(Cl)cc3)nc2c1` [Example 52, 2-(4′-chlorophenyl)-5-(ethylsulfonyl)-benzotriazole] was greater than 401%; that for `CC(C)C(=O)Nc1ccc2nn(-c3ccc(Cl)c(Cl)c3)nc2c1` [Example 53, N-(2-(3,4-Dichlorophenyl)-2H-benzo[d][1,2,3]triazol-5-yl)isobutyramide] was greater than 401%.
`CS(=O)(=O)c1ccc2nn(-c3ccc4ccccc4c3)[n+]([O-])c2c1` [Example 54, 6-(Methylsulfonyl)-2-(naphthalen-2-yl)-2H-benzo[d][1,2,3]triazole 1-oxide]: the activity at 10 µM lay within 201 to 300%.
For the compound `CS(=O)(=O)c1ccc2nn(-c3ccc4ccccc4c3)nc2c1` [Example 55, 5-(Methylsulfonyl)-2-(naphthalen-2-yl)-2H-benzo[d][1,2,3]triazole], the activity at 10 µM is greater than 401%.
For the compound `CC(C)S(=O)(=O)c1ccc2cn(-c3ccc(Cl)cc3)nc2c1` [Example 56, 2-(4′-Chlorophenyl)-6-(isopropylsulfonyl)-2H-indazole], the activity at 10 µM is greater than 401%.

The experiment is the same for the next values; noted with them: Mus musculus; Table 2; murine H2K mdx myoblasts, compound final concentration 10 μM, 48 hrs; read-out: Activity (luciferase reporter assay, relative to control).
`Cc1ccc(-n2nc3ccc(N)cc3n2)cc1C` [Example 63, 2-(3,4-dimethylphenyl)-2H-benzo[d][1,2,3]triazol-5-amine]: the activity at 10 µM is less than 200%.
Same read-out and setting: the value for `CCOc1ccc(-n2nc3cc(C)c(N)cc3n2)cc1` [Example 64, 2-(4-ethoxyphenyl)-6-methyl-2H-benzo[d][1,2,3]triazol-5-amine] was 201 to 300%; that for `Cc1ccc(-n2nc3cc(C)c(N)cc3n2)cc1` [Example 65, 6-methyl-2-p-tolyl-2H-benzo[d][1,2,3]triazol-5-amine] was 201 to 300%; that for `COc1ccc(-n2nc3cc(C)c(NC(C)=O)cc3n2)cc1` [Example 66, N-(2-(4-methoxyphenyl)-6-methyl-2H-benzo[d][1,2,3]triazol-5-yl)acetamide] was less than 200%.
On the same count and under the same terms, next, `CC(=O)Nc1cc2nn(-c3ccccc3)nc2cc1C` [Example 67, N-(6-methyl-2-phenyl-2H-benzo[d][1,2,3]triazol-5-yl)acetamide]: 201 to 300%; `CCc1ccc(-n2nc3ccc(N)cc3n2)cc1` [Example 68, 2-(4-ethylphenyl)-2H-benzo[d][1,2,3]triazol-5-amine]: 201 to 300%; `CC(=O)Nc1ccc2nn(-c3ccc(F)cc3)nc2c1` [Example 69, N-(2-(4-fluorophenyl)-2H-benzo[d][1,2,3]triazol-5-yl)acetamide]: 201 to 300%.
